Laboratory results as given in patent US4831041A, “Imidazopyridine compounds and processes for preparation thereof” (Fujisawa Pharmaceutical Co., Ltd., priority 1986, dated 1989).

How the values were obtained:
ethanol ulcer = test: Inhibition on ethanol ulcer; format: in vivo, Sprague-Dawley rats; conditions: 32 mg/kg, oral, 30 minutes before absolute ethanol (5 ml/kg); rats sacrificed one hour later; mean ulcer area vs control
Protocol: (A) Inhibition on ethanol ulcer
Five male Sprague-Dawley rats, aged 7 weeks and weighing about 200 g, were used per group for the study on ethanol ulcer after the fast for 24 hours.
Test compound was suspended in 0.1% methylcellulose aqueous solution, and the suspension (5 ml/kg) was orally given to each rat.
The control group was given a vehicle, i.e. 0.1% methylcellulose aqueous solution (5 ml/kg), alone in the same way.
Absolute ethanol (5 ml/kg) was orally administered 30 minutes after dosing with test compound, and one hour later, the rats were sacrificed and their stomachs were removed. The area of ulcers of each rat was measured. The mean area […] in the medicated group was compared with that in the control group.

Stress Ulcer = test: Inhibition on Stress Ulcer; format: in vivo, Sprague-Dawley rats; conditions: 32 mg/kg, oral, just before immobilization in water bath at 22° C.; seven hours; mean ulcer area vs control
Protocol: (B) Inhibition on Stress Ulcer
Five Sprague-Dawley rats weighing about 200 g were used per group. Each animal was immobilized in a small cage and put in a water bath allowing to respire. The temperature of the water bath kept at 22° C. The test compound was administered orally just before the immobilization. Seven hours later, the animals were sacrificed and their stomachs were removed. The stomach was then fixed with 2% formalin. The area of ulcers was measured for each animal. The mean area (mm^2) in the medicated animals was compared with that in the control animals.

Structure (SMILES): C#CCc1c(C)nc2c(OCc3c(C)cccc3NC(=O)OC)cccn12 [Test Compound (1), 8-(2-Methoxycarbonylamino-6-methylbenzyloxy)-2-methyl-3-(2-propynyl)imidazo[1,2-a]pyridine]
- Inhibition % (ethanol ulcer area) (ethanol ulcer): 93.2%
- Inhibition % (stress ulcer area) (Stress Ulcer): 100%

Structure (SMILES): C#CCc1c(C)nc2c(OCc3c(C)cccc3NC(C)=O)cccn12 [Test Compound (2), 8-(2-Acetamido-6-methylbenzyloxy)-2-methyl-3(2-propynyl)imidazo[1,2-a]pyridine]
- Inhibition % (stress ulcer area) (Stress Ulcer): 100%

Structure (SMILES): C#CCc1c(C)nc2c(OCc3c(C)cccc3NC(N)=O)cccn12 [Test Compound (3), 2-methyl-8-(2-methyl-6-ureidobenzyloxy)-3-(2propynyl)imidazo[1,2-a]pyridin]
- Inhibition % (stress ulcer area) (Stress Ulcer): 100%

Structure (SMILES): C#CCc1c(C)nc2c(OCc3c(C)cccc3NC(N)=S)cccn12 [Test Compound (4), 2-Methyl-8-(2-methyl-6-thioureidobenzyloxy)-3(2-propynyl)imidazo[1,2-a]pyridine]
- Inhibition % (stress ulcer area) (Stress Ulcer): 100%
